The source of these data is ChEMBL document CHEMBL5291721, “A preclinical secondary pharmacology resource illuminates target-adverse drug reaction associations of marketed drugs” (Nat Commun, 2023).

Where only a bound is given, the exact number is not on record here.

Assay [1] deals with Motilin receptor (Homo sapiens, UniProt O43193).
Assay [2] concerns the target T1, Alpha-2A adrenergic receptor (Homo sapiens, UniProt P08913).
T1 sequence (P08913 whole entry): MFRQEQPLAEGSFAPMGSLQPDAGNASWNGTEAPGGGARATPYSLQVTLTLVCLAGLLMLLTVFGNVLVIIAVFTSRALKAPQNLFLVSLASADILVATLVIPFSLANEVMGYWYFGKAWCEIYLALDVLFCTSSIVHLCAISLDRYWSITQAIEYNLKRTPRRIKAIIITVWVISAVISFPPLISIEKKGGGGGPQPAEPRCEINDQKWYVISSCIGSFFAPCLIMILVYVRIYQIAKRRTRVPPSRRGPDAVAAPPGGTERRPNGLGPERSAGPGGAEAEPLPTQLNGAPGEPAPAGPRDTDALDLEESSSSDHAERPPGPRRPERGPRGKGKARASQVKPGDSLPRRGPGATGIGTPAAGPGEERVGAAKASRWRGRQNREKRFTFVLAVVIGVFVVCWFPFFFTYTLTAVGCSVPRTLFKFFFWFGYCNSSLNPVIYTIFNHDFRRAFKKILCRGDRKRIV
The format is functional, cell-based.

In assay [3] the target is Sodium-dependent serotonin transporter (Homo sapiens, UniProt P31645).
Sodium-dependent serotonin transporter, sequence (P31645 whole entry): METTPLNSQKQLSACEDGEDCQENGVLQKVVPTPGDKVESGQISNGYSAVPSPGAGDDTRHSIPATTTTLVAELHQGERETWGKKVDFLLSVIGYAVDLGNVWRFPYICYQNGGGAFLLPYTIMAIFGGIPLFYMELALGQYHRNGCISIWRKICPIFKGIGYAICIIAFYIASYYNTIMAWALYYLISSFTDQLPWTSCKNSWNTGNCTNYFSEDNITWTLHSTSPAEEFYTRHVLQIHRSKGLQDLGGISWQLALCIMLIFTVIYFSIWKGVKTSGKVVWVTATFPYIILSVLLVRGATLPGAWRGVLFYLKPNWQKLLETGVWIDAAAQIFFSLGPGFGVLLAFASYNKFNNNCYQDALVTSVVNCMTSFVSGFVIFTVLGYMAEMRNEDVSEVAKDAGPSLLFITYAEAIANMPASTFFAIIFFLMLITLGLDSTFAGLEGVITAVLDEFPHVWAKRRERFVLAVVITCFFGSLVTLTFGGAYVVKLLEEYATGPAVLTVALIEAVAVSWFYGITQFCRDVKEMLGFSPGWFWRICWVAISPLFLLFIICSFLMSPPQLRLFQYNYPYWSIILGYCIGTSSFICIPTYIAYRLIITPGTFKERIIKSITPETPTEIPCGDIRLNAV
Assay [4] addresses T2, Adenosine receptor A3 (Homo sapiens, UniProt P0DMS8).
T2 sequence (P0DMS8 whole entry): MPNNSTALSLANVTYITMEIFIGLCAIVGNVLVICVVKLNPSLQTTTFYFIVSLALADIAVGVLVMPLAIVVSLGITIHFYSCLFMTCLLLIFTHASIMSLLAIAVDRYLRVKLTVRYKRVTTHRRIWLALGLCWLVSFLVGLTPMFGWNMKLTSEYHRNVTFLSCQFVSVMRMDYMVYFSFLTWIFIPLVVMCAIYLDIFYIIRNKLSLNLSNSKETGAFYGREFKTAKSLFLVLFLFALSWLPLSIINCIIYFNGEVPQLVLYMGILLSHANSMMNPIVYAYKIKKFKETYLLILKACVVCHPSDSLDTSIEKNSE

Assay [5] deals with Vasopressin V1a receptor (Homo sapiens, UniProt P37288).
The target of assay [6] is D(3) dopamine receptor (Homo sapiens, UniProt P35462).
In assay [7] the target is D(1A) dopamine receptor (Homo sapiens, UniProt P21728). The class given is functional, cell-based.
For assay [8], the target named is T3, Alpha-2B adrenergic receptor (Homo sapiens, UniProt P18089).
T3 sequence (P18089 whole entry): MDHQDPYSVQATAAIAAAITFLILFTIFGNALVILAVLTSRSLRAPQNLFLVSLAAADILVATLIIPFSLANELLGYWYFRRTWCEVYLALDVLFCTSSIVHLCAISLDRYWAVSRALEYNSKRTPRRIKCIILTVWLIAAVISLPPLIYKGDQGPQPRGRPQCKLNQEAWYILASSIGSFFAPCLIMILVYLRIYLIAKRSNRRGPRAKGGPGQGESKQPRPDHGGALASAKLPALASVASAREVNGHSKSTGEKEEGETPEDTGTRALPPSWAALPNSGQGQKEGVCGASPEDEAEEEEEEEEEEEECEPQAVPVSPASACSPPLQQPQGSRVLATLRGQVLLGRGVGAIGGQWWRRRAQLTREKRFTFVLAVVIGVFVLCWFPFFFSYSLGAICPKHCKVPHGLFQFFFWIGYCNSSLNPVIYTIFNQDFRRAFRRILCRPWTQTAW

Assay [9] has as its target Cannabinoid receptor 1 (Homo sapiens, UniProt P21554). The format is functional, cell-based.
The target in assay [10] is T4, Neuropeptide Y receptor type 1 (Homo sapiens, UniProt P25929).
T4 sequence (P25929 whole entry): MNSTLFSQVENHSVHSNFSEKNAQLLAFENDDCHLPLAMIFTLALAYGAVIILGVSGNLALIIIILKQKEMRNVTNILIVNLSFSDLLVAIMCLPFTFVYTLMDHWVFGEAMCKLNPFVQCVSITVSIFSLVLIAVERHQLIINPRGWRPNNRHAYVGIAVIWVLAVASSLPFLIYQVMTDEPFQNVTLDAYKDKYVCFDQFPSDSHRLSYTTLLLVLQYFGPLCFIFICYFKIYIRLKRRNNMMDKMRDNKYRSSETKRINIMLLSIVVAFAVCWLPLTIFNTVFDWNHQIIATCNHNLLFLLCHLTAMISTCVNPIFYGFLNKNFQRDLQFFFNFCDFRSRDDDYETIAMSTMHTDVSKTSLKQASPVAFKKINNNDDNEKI

In assay [11] the target is Muscarinic acetylcholine receptor M3 (Homo sapiens, UniProt P20309).
Muscarinic acetylcholine receptor M3, sequence (P20309 whole entry): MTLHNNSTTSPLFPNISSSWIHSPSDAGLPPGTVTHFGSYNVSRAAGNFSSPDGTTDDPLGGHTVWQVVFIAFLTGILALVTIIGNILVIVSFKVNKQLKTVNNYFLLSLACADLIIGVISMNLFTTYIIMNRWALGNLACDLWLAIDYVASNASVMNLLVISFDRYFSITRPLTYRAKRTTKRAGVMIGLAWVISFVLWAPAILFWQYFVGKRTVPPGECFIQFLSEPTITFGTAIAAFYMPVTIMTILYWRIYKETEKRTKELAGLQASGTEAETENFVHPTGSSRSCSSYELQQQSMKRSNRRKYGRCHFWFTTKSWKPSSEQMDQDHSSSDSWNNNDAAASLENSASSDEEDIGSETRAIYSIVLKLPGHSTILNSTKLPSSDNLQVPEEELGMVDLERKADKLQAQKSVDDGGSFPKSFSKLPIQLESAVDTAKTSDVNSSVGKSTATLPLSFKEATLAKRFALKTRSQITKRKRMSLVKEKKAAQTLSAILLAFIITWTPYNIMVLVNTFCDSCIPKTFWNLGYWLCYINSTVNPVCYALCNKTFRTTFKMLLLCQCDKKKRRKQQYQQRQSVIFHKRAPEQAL
For assay [12], the target named is 3',5'-cyclic-AMP phosphodiesterase 4D (Homo sapiens, UniProt Q08499). The class given is functional.
3',5'-cyclic-AMP phosphodiesterase 4D, sequence (Q08499 whole entry): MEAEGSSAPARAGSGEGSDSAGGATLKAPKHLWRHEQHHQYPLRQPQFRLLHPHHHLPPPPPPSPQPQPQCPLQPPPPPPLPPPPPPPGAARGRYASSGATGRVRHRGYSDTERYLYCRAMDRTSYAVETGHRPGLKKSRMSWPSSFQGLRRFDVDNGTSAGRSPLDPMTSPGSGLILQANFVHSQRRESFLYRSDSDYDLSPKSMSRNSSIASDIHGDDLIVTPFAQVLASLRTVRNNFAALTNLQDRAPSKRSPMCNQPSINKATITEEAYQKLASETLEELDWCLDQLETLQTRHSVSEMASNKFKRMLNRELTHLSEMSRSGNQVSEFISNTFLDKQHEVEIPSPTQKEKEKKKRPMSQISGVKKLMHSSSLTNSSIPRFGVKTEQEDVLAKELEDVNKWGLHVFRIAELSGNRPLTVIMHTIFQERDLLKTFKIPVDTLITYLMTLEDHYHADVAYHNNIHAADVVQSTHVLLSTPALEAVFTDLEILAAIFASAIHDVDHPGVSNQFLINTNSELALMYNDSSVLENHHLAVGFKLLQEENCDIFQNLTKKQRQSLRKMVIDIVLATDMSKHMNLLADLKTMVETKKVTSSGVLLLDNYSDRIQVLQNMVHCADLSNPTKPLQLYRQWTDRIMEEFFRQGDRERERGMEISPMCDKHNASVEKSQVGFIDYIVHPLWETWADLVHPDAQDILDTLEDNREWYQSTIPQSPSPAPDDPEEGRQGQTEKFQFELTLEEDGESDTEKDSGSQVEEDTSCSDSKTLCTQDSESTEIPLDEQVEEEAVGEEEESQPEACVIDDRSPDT
Assay [13] addresses Voltage-gated inwardly rectifying potassium channel KCNH2 (Homo sapiens, UniProt Q12809). The class given is functional. The note with it: read-out: AC50.
Assay [14] deals with T5, Alpha-2C adrenergic receptor (Homo sapiens, UniProt P18825).
T5 sequence (P18825 whole entry): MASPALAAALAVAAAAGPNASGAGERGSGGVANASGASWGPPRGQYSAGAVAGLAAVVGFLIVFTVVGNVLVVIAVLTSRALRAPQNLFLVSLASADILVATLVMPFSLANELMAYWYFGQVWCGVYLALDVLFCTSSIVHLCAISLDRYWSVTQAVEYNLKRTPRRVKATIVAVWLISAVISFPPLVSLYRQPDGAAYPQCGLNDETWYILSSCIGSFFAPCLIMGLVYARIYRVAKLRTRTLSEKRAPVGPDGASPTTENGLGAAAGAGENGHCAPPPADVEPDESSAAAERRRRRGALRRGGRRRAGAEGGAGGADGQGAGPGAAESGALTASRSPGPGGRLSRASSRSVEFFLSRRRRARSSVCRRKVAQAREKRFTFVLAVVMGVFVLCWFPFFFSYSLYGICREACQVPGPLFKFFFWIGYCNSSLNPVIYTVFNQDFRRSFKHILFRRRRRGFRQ
The class given is functional.

The target of assay [15] is cGMP-inhibited 3',5'-cyclic phosphodiesterase 3A (Homo sapiens, UniProt Q14432). The format is functional.
cGMP-inhibited 3',5'-cyclic phosphodiesterase 3A, sequence (Q14432 whole entry): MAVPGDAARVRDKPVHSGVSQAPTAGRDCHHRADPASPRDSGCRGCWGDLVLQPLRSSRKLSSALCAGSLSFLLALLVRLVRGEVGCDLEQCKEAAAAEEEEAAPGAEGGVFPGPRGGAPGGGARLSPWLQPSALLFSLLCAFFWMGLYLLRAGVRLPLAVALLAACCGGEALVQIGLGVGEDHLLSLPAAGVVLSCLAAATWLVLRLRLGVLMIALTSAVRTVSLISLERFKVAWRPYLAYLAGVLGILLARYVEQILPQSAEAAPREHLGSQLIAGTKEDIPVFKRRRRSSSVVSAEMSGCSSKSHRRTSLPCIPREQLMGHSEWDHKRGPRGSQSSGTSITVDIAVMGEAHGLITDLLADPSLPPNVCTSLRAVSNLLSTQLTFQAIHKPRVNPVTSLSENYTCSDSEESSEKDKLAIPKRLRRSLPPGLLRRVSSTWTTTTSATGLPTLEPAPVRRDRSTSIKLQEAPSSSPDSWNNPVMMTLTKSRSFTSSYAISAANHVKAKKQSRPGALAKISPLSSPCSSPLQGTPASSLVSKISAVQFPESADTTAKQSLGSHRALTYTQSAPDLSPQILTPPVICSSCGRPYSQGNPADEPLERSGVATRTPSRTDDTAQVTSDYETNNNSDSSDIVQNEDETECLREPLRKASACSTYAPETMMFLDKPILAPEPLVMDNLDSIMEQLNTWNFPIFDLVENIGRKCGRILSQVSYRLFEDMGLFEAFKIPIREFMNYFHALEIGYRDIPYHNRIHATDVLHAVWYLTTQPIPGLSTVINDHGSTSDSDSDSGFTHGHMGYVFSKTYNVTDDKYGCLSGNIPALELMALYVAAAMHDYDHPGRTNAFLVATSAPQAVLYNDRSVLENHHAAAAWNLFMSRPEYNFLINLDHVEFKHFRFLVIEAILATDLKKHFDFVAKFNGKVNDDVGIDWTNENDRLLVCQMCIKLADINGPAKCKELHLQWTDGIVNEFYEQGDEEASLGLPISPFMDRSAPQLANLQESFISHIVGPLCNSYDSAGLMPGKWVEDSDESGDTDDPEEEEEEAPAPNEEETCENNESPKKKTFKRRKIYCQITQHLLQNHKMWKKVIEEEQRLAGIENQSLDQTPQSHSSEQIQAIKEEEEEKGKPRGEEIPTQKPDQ
The target in assay [16] is Melanocortin receptor 3 (Homo sapiens, UniProt P41968).
Melanocortin receptor 3, sequence (P41968 whole entry): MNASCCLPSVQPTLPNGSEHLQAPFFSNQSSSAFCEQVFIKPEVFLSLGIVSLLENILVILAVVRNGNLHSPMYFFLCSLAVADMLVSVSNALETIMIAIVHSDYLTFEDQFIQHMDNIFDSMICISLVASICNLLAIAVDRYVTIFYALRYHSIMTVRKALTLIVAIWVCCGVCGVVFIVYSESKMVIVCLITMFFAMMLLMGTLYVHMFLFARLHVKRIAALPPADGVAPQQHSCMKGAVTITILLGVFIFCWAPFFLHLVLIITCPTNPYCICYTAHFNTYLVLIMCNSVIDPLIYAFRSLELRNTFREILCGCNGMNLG
Assay [17] addresses Sodium-dependent dopamine transporter (Homo sapiens, UniProt Q01959).
Assay [18] addresses Vasopressin V2 receptor (Homo sapiens, UniProt P30518).
Further: assay procedure not described here.

Vasopressin V2 receptor, sequence (P30518 whole entry): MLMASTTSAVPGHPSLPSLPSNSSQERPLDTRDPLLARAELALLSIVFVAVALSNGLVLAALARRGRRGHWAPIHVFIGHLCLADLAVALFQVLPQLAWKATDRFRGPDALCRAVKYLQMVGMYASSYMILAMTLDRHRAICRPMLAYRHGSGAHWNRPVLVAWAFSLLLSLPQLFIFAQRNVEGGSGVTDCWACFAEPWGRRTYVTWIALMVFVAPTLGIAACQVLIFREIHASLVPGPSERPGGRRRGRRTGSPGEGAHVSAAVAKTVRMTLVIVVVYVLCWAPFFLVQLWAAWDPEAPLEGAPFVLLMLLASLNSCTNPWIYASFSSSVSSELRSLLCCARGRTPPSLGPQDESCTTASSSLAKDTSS
Voltage-gated inwardly rectifying potassium channel KCNH2, sequence (Q12809 whole entry): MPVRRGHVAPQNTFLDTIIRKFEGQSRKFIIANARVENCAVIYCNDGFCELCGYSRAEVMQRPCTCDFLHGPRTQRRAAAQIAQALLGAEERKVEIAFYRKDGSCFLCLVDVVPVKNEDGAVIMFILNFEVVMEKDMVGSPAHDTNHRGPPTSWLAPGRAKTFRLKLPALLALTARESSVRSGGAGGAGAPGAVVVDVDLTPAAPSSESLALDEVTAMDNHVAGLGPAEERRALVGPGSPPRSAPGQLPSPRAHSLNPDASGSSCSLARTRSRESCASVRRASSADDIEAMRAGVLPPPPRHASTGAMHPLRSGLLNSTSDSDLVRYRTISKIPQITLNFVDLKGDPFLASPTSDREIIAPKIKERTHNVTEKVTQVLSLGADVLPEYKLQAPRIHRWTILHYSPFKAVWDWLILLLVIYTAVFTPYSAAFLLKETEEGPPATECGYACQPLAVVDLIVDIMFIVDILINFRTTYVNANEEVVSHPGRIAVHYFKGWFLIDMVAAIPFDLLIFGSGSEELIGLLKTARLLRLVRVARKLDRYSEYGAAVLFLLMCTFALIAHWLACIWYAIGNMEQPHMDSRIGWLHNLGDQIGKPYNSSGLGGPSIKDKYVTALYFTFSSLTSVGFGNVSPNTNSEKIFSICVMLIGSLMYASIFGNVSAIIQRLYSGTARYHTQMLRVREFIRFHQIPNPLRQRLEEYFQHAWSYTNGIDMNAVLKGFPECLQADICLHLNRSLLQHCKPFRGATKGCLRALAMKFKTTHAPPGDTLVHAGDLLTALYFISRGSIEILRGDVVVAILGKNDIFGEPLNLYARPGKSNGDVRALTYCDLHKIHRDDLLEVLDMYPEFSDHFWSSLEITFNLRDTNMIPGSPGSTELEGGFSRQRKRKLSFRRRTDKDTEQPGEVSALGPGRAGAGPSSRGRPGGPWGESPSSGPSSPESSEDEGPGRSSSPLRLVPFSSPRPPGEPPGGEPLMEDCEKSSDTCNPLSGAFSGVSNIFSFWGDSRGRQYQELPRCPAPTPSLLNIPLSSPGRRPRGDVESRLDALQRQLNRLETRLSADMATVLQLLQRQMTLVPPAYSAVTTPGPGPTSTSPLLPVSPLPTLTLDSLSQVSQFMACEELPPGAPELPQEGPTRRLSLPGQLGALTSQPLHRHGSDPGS

As a reminder, the AC50 is the concentration at which the activity in the assay is half-maximal. `CC(C)OC(=O)CCC/C=C\C[C@@H]1[C@@H](CC[C@@H](O)CCc2ccccc2)[C@H](O)C[C@@H]1O` [LATANOPROST]: the AC50 in assay [1], in [2], in assay [3], in assay [4], in assay [5] and in assay [6] was > 30 µM in each case. Further, the AC50 in [7], in assay [8], in assay [9], in assay [10], in assay [11] and in assay [12] was > 30 µM each time. Besides, the AC50 in [13], in [14], in assay [15], in [16], in assay [17] and in assay [18] was > 30 µM throughout.

For `CCC1(CC)C(=O)NCC(C)C1=O` (stereo unspecified) [METHYPRYLON], the AC50 in assay [1], in [2], in assay [3], in assay [4], in assay [5] and in assay [6] was > 30 µM in each case. Besides, the AC50 in [7], in [8], in [9], in assay [10], in [11] and in assay [12] was > 30 µM in each case. In addition, the AC50 in assay [13], in assay [14], in assay [15], in assay [16], in assay [17] and in assay [18] was > 30 µM in each case.

On to `CCOC(=O)[N-]c1cn(N2CCOCC2)n[o+]1` [MOLSIDOMINE], for which the AC50 in assay [1], in [2], in assay [3], in assay [4], in assay [5] and in assay [6] was > 30 µM each time. Further, the AC50 in assay [7], in assay [8], in assay [9], in assay [10], in [11] and in [12] was > 30 µM throughout. The AC50 in assay [13], in [14], in assay [15], in [16], in [17] and in assay [18] was > 30 µM throughout.

For the compound `OC(CNCC(O)C1CCc2cc(F)ccc2O1)C1CCc2cc(F)ccc2O1` (stereo unspecified) [NEBIVOLOL], the AC50 in assay [1] was 21 µM; in [2], 8.1 µM; in assay [3], 0.75 µM; in [4], 19 µM; in [5], > 30 µM; in assay [6], 2 µM. In addition, the AC50 in assay [7] is > 30 µM; in assay [8], 4.5 µM; in assay [9] it was 24 µM; in [10], 24 µM; in [11] it was > 30 µM; in assay [12] it was > 30 µM. In addition, the AC50 in [13] was 0.83 µM; in assay [14], 2 µM; in [15], > 30 µM; in assay [16], 8.7 µM; in [17] it was 3.2 µM; in assay [18], 29 µM.

Regarding `CCCc1nc(C(C)(C)O)c(C(=O)OCc2oc(=O)oc2C)n1Cc1ccc(-c2ccccc2-c2nnn[nH]2)cc1` [OLMESARTAN MEDOXOMIL], the AC50 in assay [1] is > 10 µM; in assay [2], > 10 µM; in assay [3] it was > 30 µM; in assay [4], > 10 µM; in assay [5], > 30 µM; in assay [6], > 10 µM. Also, the AC50 in assay [7] was > 10 µM; in [8], > 10 µM; in assay [9], > 30 µM; in assay [10], > 10 µM; in assay [11], > 10 µM; in assay [12] it was 3.9 µM. For the same compound, the AC50 in [13] was > 30 µM; in assay [14] it was > 10 µM; in assay [15], 11 µM; in assay [16] it was > 50 µM; in assay [17], > 30 µM; in assay [18], > 30 µM.

For the compound `O=C(O)/C=C/c1ccc(Cn2ccnc2)cc1` [OZAGREL], the AC50 in [1], in assay [2], in assay [3], in assay [4], in [5] and in assay [6] was > 30 µM throughout. For the same compound, the AC50 in [7], in assay [8], in [9], in [10], in assay [11] and in assay [12] was > 30 µM throughout. Also, the AC50 in assay [13], in assay [14], in assay [15], in assay [16], in assay [17] and in [18] was > 30 µM in each case.

Turning to `CN1CCC(=C2c3ccccc3CCc3sccc32)CC1` [PIZOTYLINE], the AC50 is > 10 µM in [1]; 3.97 µM in [2]; 8.88 µM in assay [3]; > 30 µM in [4]; > 30 µM in assay [5]; 4.3 µM in assay [6]. Moreover, the AC50 in assay [7] was > 30 µM; in [8], 0.51 µM; in assay [9] it was > 30 µM; in assay [10] it was > 30 µM; in [11], > 10 µM; in assay [12], > 10 µM. Further, the AC50 in assay [13] was 2.31 µM; in assay [14], 2.1 µM; in assay [15], > 30 µM; in [16] it was > 30 µM; in assay [17] it was 13.4 µM; in [18], > 30 µM.
